Experimental data published in patent EP4168130B1, “USE OF INDOLE COMPOUNDS FOR TREATING SIGNS OF SKIN AGING” (Unilever IP Holdings B.V., priority 2020, dated 2021).

Test system: primary adult human dermal fibroblasts (HDFs)
Experiment: High-throughput compound screen for selective elimination of senescent cells (cell viability, Hoechst 33342 / SYTOX Green high content imaging) in early proliferating (EP) and deeply senescent (DS) fibroblasts
Assay type: cell-based
Parameters: key: senolytic: EP cell viability above the 89% EP threshold and DS cell viability below the 87% DS threshold for at least one concentration of the three serial concentrations; prolifolytic: test compounds which decreased EP cell viability below the 89% EP threshold but did not decrease DS cell viability below 87%; cytotoxic: Test compounds which decreased both EP and DS cell viability below their respective thresholds; non-toxic: test compounds which maintained both EP and DS viability above their respective thresholds
Conditions: three serial concentrations, 48 hours incubation, read-out five days post compound addition, thresholds 89% EP, 87% DS, for at least one concentration
Method: Actinomycin D, a drug widely reported to induce apoptosis in multiple cell types, was optimised for use as a positive 'senolytic control' for the high-throughput compound screen in EP (0.02µM) and DS (0.2µM) HDFs.
In order to perform the high-throughput screen of the test compounds a thorough validation process of the assay was undertaken prior to experimental screening. For both EP and DS HDFs, the following steps were optimised: optimisation of cell seeding densities in 384-well plate format; validation and optimisation of Actinomycin D positive and DMSO-vehicle negative controls; optimisation of high-throughput image acquisition and high content analysis of Hoechst 33342 (ThermoFisher, UK) in combination with SYTOX Green (ThermoFisher, UK) using the INCell 2200 microscope (GE, UK) for cell death phenotypic read-outs; optimisation of liquid handling system protocols; plate uniformity assessments; and a "dry run" of all components in the assay. […]
Following successful high-throughput compound screening of the test compounds in both EP and DS HDFs, a number of post-screen quality control checks were employed prior to hit detection. First, negative and positive control inter- and intra-plate cell number variability was assessed in order to identify potential systemic issues. […]

## O=C(O)Cn1ccc2ccccc21 [1-indoleacetic acid]
  hit classification based on EP and DS cell viability: senolytic
